Data from patent US20240271127A1, “METHODS OF ENHANCING AND EXPEDITING EXPRESSION OF ANTIBODIES” (Aridis Pharmaceuticals, Inc., priority 2019, published 2024).

Tested on: UPR pathway in CHO-K1 cell line expressing Ire1-1642G and Fv2E-PERK
Assay: Drug-inducible UPR pathway activation, RT-qPCR of UPR gene mRNA transcripts
Format: cell-based, Chinese hamster
Settings: CHO-K1 transfected with Ire1-1642G and Fv2E-PERK in combination; 1NM-PP1 0, 10 or 50 μM added 24 hours post-transfection
Method: In FIG. 12A drug-inducible activation of UPR pathway promotes ER expansion signaling pathways in a dosage-dependent manner. […] At 24 hours post-transfection, cells were treated with varying concentrations of 1NM-PP1 (0, 10, or 50 μM). mRNA transcripts of UPR genes were measured by RT-qPCR of unspliced Xbp1 (Xbp1u), spliced Xbp1 (Xbp1s), Chop, Gadd34, and Atf4. […]
Reverse transcription real-time quantitative polymerase chain reaction (RT-qPCR). […] Quantification was by standard ddCt method.
1NM-PP1 drug induction in CHO cells: Stable CHO cell lines expressing Ire1a 1642G or Fv2E-PERK alone or in combination were induced with 10 or 50 µM of 1NM-PP1. Gene expression measured by RT-qPCR was performed at 24h post-drug induction.
A drug inducible UPR activation pathway was constructed in a CHO-K1 cell line transfected with plasmid containing constitutive promoter expressing Ire1-1642G or Fv2E-PERK alone or in combination. At 24 hours post-transfection, cells were treated with varying concentrations of 1NM-PP1 (0, 10 or 50 μM). mRNA transcripts of UPR genes were measured by RT-qPCR of unspliced Xbp1 (Xbp1u), spliced Xbp1 (Xbp1s), Chop, Gadd34, and Atf4.

## CC(C)(C)n1nc(Cc2cccc3ccccc23)c2c(N)ncnc21 [1NM-PP1]
  mRNA transcripts of UPR genes Xbp1u, CHOP, Gadd34 and Atf4 (RT-qPCR): increased at higher concentrations
